Measured values published in patent US20060252807A1, “Novel ortho-terphenyl inhibitors of p38 kinase and methods of treating inflammatory disorders” (Kalypsys, Inc., priority 2005, published 2006).

Molecular target: T1, active p38 alpha enzyme (Upstate Biotechnology) (Homo sapiens, UniProt Q16539)
T1 construct: purchased Upstate Biotechnology
Assay: p38α biochemical assay (ATP turnover, luminescent detection, Cambrex PKlight)
Conditions: p38α biochemical assay, Table 1 Biological Activity
Outline: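 Luminescent ATP-depletion readout measures total ATP turnover by p38α phosphorylating whole MapkapK2 protein. ATP 1.4 uM final; 30C, 2 h. Compounds delivered from DMSO.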

T1 sequence (Q16539 whole entry): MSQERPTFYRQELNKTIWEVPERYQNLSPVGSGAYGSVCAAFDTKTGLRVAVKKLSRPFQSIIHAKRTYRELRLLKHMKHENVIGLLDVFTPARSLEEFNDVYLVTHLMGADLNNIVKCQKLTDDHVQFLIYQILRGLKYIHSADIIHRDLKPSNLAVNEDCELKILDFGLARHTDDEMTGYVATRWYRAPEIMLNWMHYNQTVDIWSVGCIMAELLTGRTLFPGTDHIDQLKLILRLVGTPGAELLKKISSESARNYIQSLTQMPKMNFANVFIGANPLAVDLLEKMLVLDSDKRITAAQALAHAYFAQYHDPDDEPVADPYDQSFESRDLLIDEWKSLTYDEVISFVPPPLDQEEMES

SMILES	IC50
CC(C)NC(=O)c1csc(-c2oc(CNC(=O)c3ccc(OC(C)C)cc3)nc2-c2ccc(F)cc2)n1 [Example 219]	> 1 µM
CC(C)NC(=O)c1csc(-c2c(-c3ccc(F)cc3)noc2CNC(=O)c2cccc(Cl)c2Cl)n1 [Example 726]	> 1 µM
O=C(NCc1cccnc1)c1csc(-c2c(-c3ccc(F)cc3)n[nH]c2C2CCNCC2)n1 [Example 67, 2-|3-(4-Fluoro-phenyl)-5-piperidin-4-yl-1H-pyrazol-4-yl|-thiazole-4-carboxylic acid (pyridin-3-ylmethyl)-amide]	≤ 1 µM
CC(C)NC(=O)c1csc(-c2oc(CN3CCN(C(=O)c4ccc(N(C)C=O)cc4)CC3)nc2-c2ccc(F)cc2)n1 [Example 447]	≤ 1 µM
COc1ccc(Br)c(C(=O)NCc2nc(-c3ccc(F)cc3)c(-c3nc(C(=O)NC(C)C)cs3)o2)c1 [Example 316]	≤ 1 µM
CC(C)NC(=O)c1csc(-c2oc(CN3CCN(C(=O)c4cccc(O)c4O)CC3)nc2-c2ccc(F)cc2)n1 [Example 384]	≤ 1 µM
CC(C)NC(=O)c1csc(-c2c(-c3ccc(F)cc3)noc2CNC(=O)c2ccc(Oc3cccc(O)c3)cc2)n1 [Example 787]	> 1 µM
Cc1onc(-c2ccc(Cl)cc2)c1-c1cc(C)n(C(=O)NC(C)C)n1 [Example 16, 3-|3-(4-Chloro-phenyl)-5-methyl-isoxazol-4-yl|-5-methyl-pyrazole-1-carboxylic acid isopropylamide]	≤ 1 µM
CC(C)NC(=O)c1csc(-c2c(-c3ccc(F)cc3)noc2CNC(=O)c2ccc(Cl)nc2)n1 [Example 627]	> 1 µM
COc1cc(/C=C/C(=O)NCc2onc(-c3ccc(F)cc3)c2-c2nc(C(=O)NC(C)C)cs2)ccc1O [Example 736]	> 1 µM
CC(C)NC(=O)c1csc(-c2oc(CNC(=O)c3ccc(-c4ccc(O)cc4)cc3)nc2-c2ccc(F)cc2)n1 [Example 291]	≤ 1 µM
COc1ccccc1/C=C/C(=O)N1CCN(Cc2nc(-c3ccc(F)cc3)c(-c3nc(C(=O)NC(C)C)cs3)o2)CC1 [Example 442]	≤ 1 µM
CC(=O)Oc1cccc(C(=O)NCc2nc(-c3ccc(F)cc3)c(-c3nc(C(=O)NC(C)C)cs3)o2)c1 [Example 215]	> 1 µM
COc1ccc(C(=O)NCc2onc(-c3ccc(F)cc3)c2-c2nc(C(=O)NC(C)C)cs2)cc1 [Example 616]	> 1 µM
CC(C)NC(=O)c1csc(-c2oc(CNC(=O)Cc3ccc4c(c3)OCO4)nc2-c2ccc(F)cc2)n1 [Example 217]	> 1 µM
CC(C)NC(=O)c1csc(-c2oc(CNC(=O)c3cc(Cl)ccc3Cl)nc2-c2ccc(F)cc2)n1 [Example 253]	≤ 1 µM
CC(C)NC(=O)c1csc(-c2oc(CN3CCN(C(=O)c4ccccc4C=O)CC3)nc2-c2ccc(F)cc2)n1 [Example 369]	≤ 1 µM
COc1cc(C(=O)N2CCN(Cc3nc(-c4ccc(F)cc4)c(-c4nc(C(=O)NC(C)C)cs4)o3)CC2)cc(OC)c1O [Example 503]	≤ 1 µM
CCCOc1ccc(C(=O)NCc2nc(-c3ccc(F)cc3)c(-c3nc(C(=O)NC(C)C)cs3)o2)cc1 [Example 218]	> 1 µM
CC(C)NC(=O)c1csc(-c2c(-c3ccc(F)cc3)noc2CNC(=O)c2cn(C)cn2)n1 [Example 592]	> 1 µM
COC(=O)c1ccc(C(=O)NCc2nc(-c3ccc(F)cc3)c(-c3nc(C(=O)NC(C)C)cs3)o2)cc1 [Example 214]	> 1 µM
Cc1ccc(C(=O)N2CCN(Cc3nc(-c4ccc(F)cc4)c(-c4nc(C(=O)NC(C)C)cs4)o3)CC2)cc1F [Example 386]	> 1 µM
CC(C)NC(=O)c1csc(-c2oc(CNC(=O)c3cc(C(C)C)cc(C(C)C)c3O)nc2-c2ccc(F)cc2)n1 [Example 304]	≤ 1 µM
CC(C)NC(=O)c1csc(-c2c(-c3ccc(F)cc3)noc2CNC(=O)c2cc(O)ccc2[N+](=O)[O-])n1 [Example 708]	> 1 µM

Same assay, conditions: p38α kinase; Table 1 Biological Activity

SMILES	IC50
Cc1nc(-c2ccc(F)cc2)c(-c2nc(C(=O)N3CCC(NC(=O)OC(C)(C)C)C3)cs2)s1 (centres unmarked) [Example 1910]	> 1 µM
Cc1nc(-c2ccc(F)cc2)c(-c2nc(C(=O)N(CCCO)Cc3ccccn3)cs2)s1 [Example 1896]	> 1 µM
CC(C)NC(=O)c1csc(-c2c(-c3ccc(F)cc3)noc2CN(C)C)n1 [Example 1508]	> 1 µM
CCC(CO)NC(=O)c1csc(-c2sc(C)nc2-c2ccc(F)cc2)n1 (centres unmarked) [Example 1729]	≤ 1 µM
CC(C)NC(=O)c1csc(-c2c(-c3ccc(F)cc3)noc2CN)n1 [Example 810]	≤ 1 µM
Cc1nc(-c2ccc(F)cc2)c(-c2nc(C(=O)NCc3ccccc3C)cs2)s1 [Example 1755]	≤ 1 µM
CC(C)NC(=O)c1csc(-c2c(-c3ccc(F)cc3)noc2CNCCCCO)n1 [Example 1406]	> 1 µM
CC(C)NC(=O)c1csc(-c2c(-c3ccc(F)cc3)n[nH]c2C2CCN(C(=O)Cc3ccc(Br)cc3)CC2)n1 [Example 1008]	> 1 µM
O=C(O)c1csc(-c2c(-c3ccc(F)cc3)n[nH]c2C2CCNCC2)n1 [Example 2030]	> 1 µM
CCCC(C)NCc1nc(-c2ccc(F)cc2)c(-c2nc(C(=O)NC(C)C)cs2)o1 (centres unmarked) [Example 1067]	> 1 µM
CCCCN(C)Cc1onc(-c2ccc(F)cc2)c1-c1nc(C(=O)NC(C)C)cs1 [Example 1519]	> 1 µM
Cc1ccnc(NC(=O)c2csc(-c3sc(C)nc3-c3ccc(F)cc3)n2)c1 [Example 1961]	> 1 µM
Cc1nc(-c2ccc(F)cc2)c(-c2nc(C(=O)N(CCC#N)Cc3cccnc3)cs2)s1 [Example 1891]	> 1 µM
O=C(NCCc1ccc(Cl)cc1)c1csc(-c2c(-c3ccc(F)cc3)n[nH]c2C2CCNCC2)n1 [Example 2127]	> 1 µM
CC(C)NC(=O)c1csc(-c2c(-c3ccc(F)cc3)n[nH]c2C2CCN(C(=O)c3ccc(C(C)(C)C)cc3)CC2)n1 [Example 923]	≤ 1 µM
Cc1nc(-c2ccc(F)cc2)c(-c2nc(C(=O)Nc3ccc(F)cc3F)cs2)s1 [Example 1979]	> 1 µM
CC(C)NC(=O)c1csc(-c2c(-c3ccc(F)cc3)n[nH]c2C2CCN(C(=O)C3CCc4ccccc43)CC2)n1 (centres unmarked) [Example 878]	> 1 µM
CC(C)NC(=O)c1csc(-c2oc(CN(CCC#N)Cc3cccnc3)nc2-c2ccc(F)cc2)n1 [Example 1240]	> 1 µM
CC(C)NC(=O)c1csc(-c2c(-c3ccc(F)cc3)noc2CNc2ccccc2COc2ccccc2)n1 [Example 1694]	> 1 µM
CC(C)NC(=O)c1csc(-c2c(-c3ccc(F)cc3)noc2CN2C[C@@H](C)N[C@@H](C)C2)n1 [Example 1535]	> 1 µM
CC(C)NC(=O)c1csc(-c2c(-c3ccc(F)cc3)noc2CNCC(C)c2ccccc2)n1 (centres unmarked) [Example 1448]	> 1 µM
CC(C)NC(=O)c1csc(-c2oc(CNCCN)nc2-c2ccc(F)cc2)n1 [Example 1056]	> 1 µM

SMILES	IC50
Cc1nc(-c2ccc(F)cc2)c(-c2nc(C(=O)N3CCC(N(C)C(=O)OC(C)(C)C)C3)cs2)s1 (centres unmarked) [Example 1930]	> 1 µM
CC(C)NC(=O)c1csc(-c2oc(CN3CCN(C(=O)OC(C)(C)C)CC3)nc2-c2ccc(F)cc2)n1 [Example 1258]	> 1 µM
Cc1nc(-c2ccc(F)cc2)c(-c2nc(C(=O)Nc3ccc(C)c(Cl)c3)cs2)s1 [Example 1993]	> 1 µM
COc1ccc(N2CCN(C(=O)c3csc(-c4sc(C)nc4-c4ccc(F)cc4)n3)CC2)cc1 [Example 1920]	> 1 µM
CC(C)CN(C)Cc1onc(-c2ccc(F)cc2)c1-c1nc(C(=O)NC(C)C)cs1 [Example 1517]	> 1 µM
Cc1ccc(S(=O)(=O)NCCNCc2nc(-c3ccc(F)cc3)c(-c3nc(C(=O)NC(C)C)cs3)o2)cc1 [Example 1180]	≤ 1 µM
Cc1nc(-c2ccc(F)cc2)c(-c2nc(C(=O)N3CCN(Cc4ccccc4)CC3)cs2)s1 [Example 1900]	> 1 µM
CC(C)NC(=O)c1csc(-c2oc(CN(C)C(Cc3ccccc3)c3ccccc3)nc2-c2ccc(F)cc2)n1 (centres unmarked) [Example 1288]	> 1 µM
CC(C)NC(=O)c1csc(-c2oc(CN(CCc3ccccc3)Cc3ccccc3)nc2-c2ccc(F)cc2)n1 [Example 1286]	> 1 µM
CC(C)NC(=O)c1csc(-c2c(-c3ccc(F)cc3)noc2CNCc2ccc(F)cc2)n1 [Example 1435]	> 1 µM
Cc1nc(-c2ccc(F)cc2)c(-c2nc(C(=O)N3CCC(O)(O)CC3)cs2)s1 [Example 1886]	> 1 µM
COc1ccc(NC(=O)c2csc(-c3sc(C)nc3-c3ccc(F)cc3)n2)cc1OC [Example 2003]	> 1 µM
Cc1ccc([N+](=O)[O-])c(C(=O)N2CCC(c3[nH]nc(-c4ccc(F)cc4)c3-c3nc(C(=O)NC(C)C)cs3)CC2)c1 [Example 936]	> 1 µM
Cc1ccccc1CNCc1nc(-c2ccc(F)cc2)c(-c2nc(C(=O)NC(C)C)cs2)o1 [Example 1100]	> 1 µM
CC(C)NC(=O)c1csc(-c2c(-c3ccc(F)cc3)n[nH]c2C2CCN(C(=O)C(F)(F)F)CC2)n1 [Example 2174, 2-{3-(4-Fluoro-phenyl)-5-|1-(2,2,2-trifluoro-acetyl)-piperidin-4-yl|-1H-pyrazol-4-yl}-thiazole-4-carboxylic acid isopropylamide]	≤ 1 µM
COc1cccc(CNC(=O)c2csc(-c3c(-c4ccc(F)cc4)n[nH]c3C3CCNCC3)n2)c1 [Example 2103]	> 1 µM
CC(C)NC(=O)c1csc(-c2oc(CNCCN(C)C)nc2-c2ccc(F)cc2)n1 [Example 1071]	> 1 µM
CC(C)CCCC(C)NCc1onc(-c2ccc(F)cc2)c1-c1nc(C(=O)NC(C)C)cs1 (centres unmarked) [Example 1440]	> 1 µM
Cc1ccc(NCc2onc(-c3ccc(F)cc3)c2-c2nc(C(=O)NC(C)C)cs2)nc1 [Example 1634]	> 1 µM
Cc1nc(-c2ccc(F)cc2)c(-c2nc(C(=O)Nc3ccccc3)cs2)s1 [Example 1955]	> 1 µM
Cc1nc(-c2ccc(F)cc2)c(-c2nc(C(=O)N(C)CCC#N)cs2)s1 [Example 1840]	> 1 µM
Cc1cc(C)c(NCc2onc(-c3ccc(F)cc3)c2-c2nc(C(=O)NC(C)C)cs2)c(C)c1 [Example 1661]	> 1 µM
